Experiment: Pharmacokinetics in male Sprague-Dawley rats
Format: in vivo
Conditions: plasma, Rat
Experimental: Male Sprague-Dawley (SD) rats (300–350 g) were fasted overnight, and three per group received BMS-869780 either as an intravenous (IV) infusion in PEG400 : ethanol (90 : 10 w/w) at 1 mg/kg over 5 min via the jugular vein or as nanosuspension (d50 ca. 300 nm) by oral gavage at 5 mg/kg in Povidone K-30 : sodium lauryl sulfate : water (2.5 : 0.12 : 97.38 w/w/w/w). For the IV infusion, serial blood samples were obtained before dose and at 0.17, 0.25, 0.5, 0.75, 1, 2, 4, 6, 8, and 24 hours after dose. For the PO nanosuspension, serial blood samples were obtained before dose and at 0.25, 0.5, 0.75, 1, 2, 4, 6, 8, and 24 h after dose. Blood samples, ~0.3 mL, for all studies were collected from the jugular vein into K3EDTA-containing tubes and then centrifuged at 4°C (1500–2000 ×g) to obtain plasma, which was stored at −20°C until analysis by LC/MS/MS. In male beagle dogs, the PK of BMS-869780 was evaluated in a cross-over study design with a one-week washout between treatments. Dogs were fasted overnight, and three animals (9.5 to 10.7 kg) received BMS-869780 by IV infusion at 1 mg/kg over 5 minutes in PEG400 : ethanol (90 : 10 w/w) or as nanosuspension (d50 ca. 300 nm) by oral gavage at 5 mg/kg in Povidone K-30 : sodium lauryl sulfate : water (2.5 : 0.12 : 97.38 w/w/w/w). Serial blood samples (~0.3 mL) were collected from a saphenous vein into K3EDTA-containing tubes before dose and at 0.083, 0.17, 0.25, 0.5, 0.75, 1, 2, 4, 6, 8, and 24 hours after IV dose, and 0.25, 0.5, 0.75, 1, 2, 4, 6, 8, and 24 hours after oral dose, followed by centrifugation at 4°C (1500 to 2000 ×g) to obtain plasma. Samples were stored at −20°C until analysis of BMS-869780 levels by LC-MS/MS. In male cynomolgus monkeys, the PK of BMS-869780 was evaluated in a cross-over study design with a 1-week washout between treatments. Following an overnight fast, three animals (4.5 to 8 kg) received BMS-869780 by IV infusion via a femoral vein at 1 mg/kg over 10 minutes in PEG400 : ethanol (90 : 10), or by oral gavage at 5 mg/kg in Povidone K-30 : sodium lauryl sulfate : water (2.5 : 0.12 : 97.38). Serial blood samples, ~0.3 mL, were collected from a femoral artery into K3EDTA-containing tubes before dose and at 0.083, 0.17, 0.25, 0.5, 0.75, 1, 2, 4, 6, 8, and 24 hours after IV dose, and 0.25, 0.5, 0.75, 1, 2, 4, 6, 8, and 24 hours after oral dose, followed by centrifugation at 4°C (1500 to 2000 ×g) to obtain plasma. Samples were stored at −20°C until analysis of BMS-869780 levels by LC-MS/MS. The PK parameters of BMS-869780 were obtained by noncompartmental analysis of plasma concentration versus time data (WinNonlin software, Version 5.0; Pharsight Corporation, Mountain View, CA). The peak concentration (C max) and time for C max (T max) were recorded directly from experimental observations. The area under the curve from time zero to the last sampling time (AUC^0-T) and the area under the curve from time zero to infinity (AUC^INF) were calculated using a combination of linear and log trapezoidal summations. The total plasma clearance (CLTp), steady-state volume of distribution (Vss), apparent elimination half-life (T 1/2), and mean residence time (MRT) were estimated after IV administration. The absolute oral bioavailability (F) was estimated as the ratio of dose-normalized AUC values following oral and IV doses.
Figure 9 Pharmacokinetics (PK) of BMS-869780 across species for prediction of human PK. Rats, dogs, and cynomolgus monkeys were dosed with BMS-869780 intravenously (IV ▲) at 1 mg/kg or oral nanosuspension (PO ●) at 5 mg/kg. Plasma concentrations of BMS-869780 were determined for up to 24 hours after the dose. (a) Rat. (b) Dog. (c) Cynomolgus monkey.

With `COc1cc(Nc2nc3n(n2)CCCC[C@H]3c2ccc(F)cc2)ccc1-n1cnc(Cl)c1` [BMS-869780] the AUC(0-t) (IV 1 mg/kg) was 1.48 ± 0.121 µM·h, the MRT (IV 1 mg/kg) was 1 ± 0.2 h and the clearance (IV 1 mg/kg) was 24.3 ± 1.7 mL/min/kg. For the same compound, the half-life (IV 1 mg/kg) was 2 ± 0.3 h, the Vd (IV 1 mg/kg, read-out: Vss) was 1.8 ± 0.5 L/kg and the AUC(0-t) (PO suspension 5 mg/kg) was 4 ± 0.964 µM·h. It also gave a Cmax (PO suspension 5 mg/kg) of 674 ± 227 nM, a Tmax (PO suspension 5 mg/kg) of 3.3 ± 1.2 h and a bioavailability (PO suspension 5 mg/kg) of 54%.
